Experiments:
[1] = Particle size and PDI of nucleic acid lipid nanoparticle preparations by dynamic light scattering; type: physicochemical
Description: The 7.5 μL nucleic acid lipid nanoparticle solution (containing approximately 0.04 mg/mL mRNA) was taken and added with 200 μL ultrapure water, mixed by gentle blowing using a pipette tip, and the particle size of the nanopreparation was detected by dynamic lightscattering (DLS) using a Malvern Dynamic Light Scattering Instrument (Malvern Instruments Ltd., ZEN3700, UK).
27.5 μL nucleic acid lipid nanoparticle solution (containing about 0.04 mg/mL mRNA) was taken and added with 200 μL ultrapure water. A pipette tip was used to gently blow the sample and mix well. The particle size of the nanopreparation was detected by Malvern Dynamic Light Scattering Instrument (Malvern Instruments Ltd., ZEN3700, UK). After the detection, the sample was recovered to an EP tube, and 600 μL of ultrapure water was added, gently blown with a pipette tip, and the potential of the nanopreparation was measured by a Malvern particle size meter.

mice = assay: In vivo delivery of FLuc-mRNA lipid nanoparticles in mice, in vivo imaging (IVIS)
How it was run: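 Mice (n=3) received about 75 μL FLuc-mRNA LNP per mouse intramuscularly (rectus femoris), intravenously (tail vein), intraperitoneally or subcutaneously (back). After injection, D-luciferin (200 μL, 15 mg/mL) was given i.p. 10-15 min before IVIS imaging.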

[2] = DMG-PEG2000:DSPC:Chol:Lipid 1.40:11.15:38.95:48.50, N/P 16.7, mRNA LNP
[3] = DMG-PEG2000:DSPC:Chol:Lipid 1.40:11.15:38.95:48.50, N/P 18, mRNA LNP
[4] = DMG-PEG2000:DSPC:Chol:Lipid 1.40:11.15:38.95:48.50, N/P 18, IM, whole body scan
[5] = DMG-PEG2000:DSPC:Chol:Lipid 1.40:11.15:38.95:48.50, N/P 18, IV, whole body scan
[6] = DMG-PEG2000:DSPC:Chol:Lipid 1.40:11.15:38.95:48.50, N/P 30, mRNA LNP
[7] = DMG-PEG2000:DSPC:Chol:compound 1.40:11.15:38.95:48.50, N/P 30
[8] = IM, DMG-PEG2000:DSPC:Chol:compound 1.40:11.15:38.95:48.50, N/P 30, Fluc-mRNA
[9] = DMG-PEG2000:DSPC:Chol:compound 1.40:11.15:38.95:48.50, N/P 20
[10] = IM, DMG-PEG2000:DSPC:Chol:compound 1.40:11.15:38.95:48.50, N/P 20, Fluc-mRNA
[11] = DMG-PEG2000:DSPC:Chol:Lipid 1.00:8.00:51.00:40.00, N/P 6.7, mRNA LNP
[12] = DMG-PEG2000:DSPC:Chol:Lipid 1.50:8.00:30.50:60.00, N/P 8.3, mRNA LNP
[13] = DMG-PEG2000:DSPC:Chol:Lipid 1.63:12.99:45.38:40.00, N/P 25, mRNA LNP
[14] = DMG-PEG2000:DSPC:Chol:Lipid 1.00:8.00:51.00:40.00, N/P 6.7, IV, liver
[15] = DMG-PEG2000:DSPC:Chol:Lipid 1.00:8.00:51.00:40.00, N/P 6.7, IV, lung
[16] = DMG-PEG2000:DSPC:Chol:Lipid 1.00:8.00:51.00:40.00, N/P 6.7, IV, spleen
[17] = DMG-PEG2000:DSPC:Chol:Lipid 1.50:8.00:30.50:60.00, N/P 8.3, IV, liver
[18] = DMG-PEG2000:DSPC:Chol:Lipid 1.50:8.00:30.50:60.00, N/P 8.3, IV, lung
[19] = DMG-PEG2000:DSPC:Chol:Lipid 1.50:8.00:30.50:60.00, N/P 8.3, IV, spleen
[20] = IV, body, DMG-PEG2000:DSPC:Chol:compound 1.40:11.15:38.95:48.50, N/P 30, Fluc-mRNA
[21] = IV, liver, DMG-PEG2000:DSPC:Chol:compound 1.40:11.15:38.95:48.50, N/P 30
[22] = IV, liver, DMG-PEG2000:DSPC:Chol:compound 1.40:11.15:38.95:48.50, N/P 30, Fluc-mRNA
[23] = IV, lung, DMG-PEG2000:DSPC:Chol:compound 1.40:11.15:38.95:48.50, N/P 30
[24] = IV, lung, DMG-PEG2000:DSPC:Chol:compound 1.40:11.15:38.95:48.50, N/P 30, Fluc-mRNA
[25] = IV, spleen, DMG-PEG2000:DSPC:Chol:compound 1.40:11.15:38.95:48.50, N/P 30
[26] = IV, spleen, DMG-PEG2000:DSPC:Chol:compound 1.40:11.15:38.95:48.50, N/P 30, Fluc-mRNA
[27] = IV, organ not given, DMG-PEG2000:DSPC:Chol:compound 1.40:11.15:38.95:48.50, N/P 20, Fluc-mRNA

## CCCCCCOCOCCCCCCOC(=O)C(O)CN(CCN(C)CCN(CC(O)C(=O)OCCCCCCOCOCCCCCC)CC(O)C(=O)OCCCCCCOCOCCCCCC)CC(O)C(=O)OCCCCCCOCOCCCCCC (stereo not drawn) [Compound L0272]
[1]; [2]
  PDI: 0.09 ± 0.02
  Particle size: 137.20 ± 0.61 nm
mice; DMG-PEG2000:DSPC:Chol:Lipid 1.40:11.15:38.95:48.50, N/P 16.7, IM, whole body scan
  IVIS: 9.96 × 10^7
mice; DMG-PEG2000:DSPC:Chol:Lipid 1.40:11.15:38.95:48.50, N/P 16.7, IV, whole body scan
  IVIS: 9.45 × 10^8
mice; certain formulations, Table 2
  in vivo delivery efficiency as compared to the benchmark compound SM102: superior in vivo delivery efficiency

## CC/C=C\CCOCOCCCCCCOC(=O)C(O)CN(C)CCN(C)CCN(C)CC(O)C(=O)OCCCCCCOCOCC/C=C\CC (stereo not drawn) [Compound L0284]
[1]; [3]
  PDI: 0.12 ± 0.02
  Particle size: 150.97 ± 2.57 nm
mice; [4]
  IVIS: 5.87 × 10^4
mice; [5]
  IVIS: 2.03 × 10^5

## CCCCCCOCOCCCCCCOC(=O)C(O)CN(C)CCN(C)CCN(C)CC(O)C(=O)OCCCCCCOCOCCCCCC (stereo not drawn) [Compound L0279]
[1]; [6]
  PDI: 0.23 ± 0.02
  Particle size: 150.80 ± 1.97 nm
mice; DMG-PEG2000:DSPC:Chol:Lipid 1.40:11.15:38.95:48.50, N/P 30, IM, whole body scan
  IVIS: 2.87 × 10^5
mice; DMG-PEG2000:DSPC:Chol:Lipid 1.40:11.15:38.95:48.50, N/P 30, IV, body (whole body scan)
  IVIS: 5.19 × 10^5

## CCCCCCCCCCNC(=O)C(O)CN(C)CCCN(C)CCCN(C)CC(O)C(=O)NCCCCCCCCCC (stereo not drawn) [Compound L0327]
[1]; [7]
  PDI: 0.18
  Particle size (nm): 108.57 nm
mice; [8]
  IVIS: 4.85E+05
mice; IV, organ not given, DMG-PEG2000:DSPC:Chol:compound 1.40:11.15:38.95:48.50, N/P 30, Fluc-mRNA
  IVIS: 2.98E+05

## CCCCCCOCOCCCCCCOC(=O)C(O)CN(CCOCCN(CC(O)C(=O)OCCCCCCOCOCCCCCC)CC(O)C(=O)OCCCCCCOCOCCCCCC)CC(O)C(=O)OCCCCCCOCOCCCCCC (stereo not drawn) [Compound L0330]
[1]; [9]
  PDI: 0.10
  Particle size (nm): 145.77 nm
mice; [10]
  IVIS: 1.35E+06
mice; IV, body, DMG-PEG2000:DSPC:Chol:compound 1.40:11.15:38.95:48.50, N/P 20, Fluc-mRNA
  IVIS: 2.05E+06
mice; IV, liver, DMG-PEG2000:DSPC:Chol:compound 1.40:11.15:38.95:48.50, N/P 20
  % of organ targeting: 29.70%
mice; IV, liver, DMG-PEG2000:DSPC:Chol:compound 1.40:11.15:38.95:48.50, N/P 20, Fluc-mRNA
  IVIS: 2.90E+05
mice; IV, lung, DMG-PEG2000:DSPC:Chol:compound 1.40:11.15:38.95:48.50, N/P 20
  % of organ targeting: 4.48%
mice; IV, lung, DMG-PEG2000:DSPC:Chol:compound 1.40:11.15:38.95:48.50, N/P 20, Fluc-mRNA
  IVIS: 4.37E+04
mice; IV, spleen, DMG-PEG2000:DSPC:Chol:compound 1.40:11.15:38.95:48.50, N/P 20
  % of organ targeting: 65.82%
mice; IV, spleen, DMG-PEG2000:DSPC:Chol:compound 1.40:11.15:38.95:48.50, N/P 20, Fluc-mRNA
  IVIS: 6.43E+05

## CCCCCCCCCCNC(=O)C(O)CN(CCN(C)CCN(CC(O)C(=O)NCCCCCCCCCC)CC(O)C(=O)NCCCCCCCCCC)CC(O)C(=O)NCCCCCCCCCC (stereo not drawn) [Compound L0266]
[1]; [11]
  PDI: 0.10 ± 0.01
  Particle size: 80.47 ± 1.22 nm
[1]; [12]
  PDI: 0.17 ± 0.02
  Particle size: 108.70 ± 0.82 nm
[1]; [13]
  PDI: 0.17 ± 0.01
  Particle size: 85.98 ± 1.18 nm
mice; DMG-PEG2000:DSPC:Chol:Lipid 1.00:8.00:51.00:40.00, N/P 6.7, IV, body
  IVIS: 3.13 × 10^7
mice; [14]
  % of organ targeting: 28.98%
  IVIS: 3.13 × 10^6
mice; [15]
  % of organ targeting: 24.44%
  IVIS: 2.64 × 10^6
mice; [16]
  % of organ targeting: 46.57%
  IVIS: 5.03 × 10^6
mice; DMG-PEG2000:DSPC:Chol:Lipid 1.50:8.00:30.50:60.00, N/P 8.3, IV, body
  IVIS: 2.53 × 10^7
mice; [17]
  % of organ targeting: 3.53%
  IVIS: 1.72 × 10^6
mice; [18]
  % of organ targeting: 89.03%
  IVIS: 4.34 × 10^7
mice; [19]
  % of organ targeting: 7.45%
  IVIS: 3.63 × 10^6
mice; DMG-PEG2000:DSPC:Chol:Lipid 1.63:12.99:45.38:40.00, N/P 25, IM, whole body scan
  IVIS: 2.20 × 10^6
mice; certain formulations, Table 2
  tissue-targeting specificity (lung vs spleen depending on molar percentage of compound): strong tissue-targeting specificity

## CCCCCCC(CCCCCC)C(=O)OCCCCOC(=O)C(O)CN(CCN(C)CCN(CC(O)C(=O)OCCCCOC(=O)C(CCCCCC)CCCCCC)CC(O)C(=O)OCCCCOC(=O)C(CCCCCC)CCCCCC)CC(O)C(=O)OCCCCOC(=O)C(CCCCCC)CCCCCC (stereo not drawn) [Compound L0297]
[1]; [7]
  PDI: 0.13
  Particle size (nm): 119.00 nm
mice; [8]
  IVIS: 8.34E+07
mice; [20]
  IVIS: 1.64E+08
mice; [21]
  % of organ targeting: 35.19%
mice; [22]
  IVIS: 3.82E+07
mice; [23]
  % of organ targeting: 13.24%
mice; [24]
  IVIS: 1.44E+07
mice; [25]
  % of organ targeting: 51.57%
mice; [26]
  IVIS: 5.59E+07

## CCCCCCCCCCNC(=O)C(O)CN(CCOCCN(CC(O)C(=O)NCCCCCCCCCC)CC(O)C(=O)NCCCCCCCCCC)CC(O)C(=O)NCCCCCCCCCC (stereo not drawn) [Compound L0326]
[1]; [9]
  PDI: 0.14
  Particle size (nm): 103.37 nm
mice; [10]
  IVIS: 6.75E+05
mice; [27]
  IVIS: 1.02E+06

## CCCCCCCCCCCCNC(=O)C(O)CN(C)CCN(C)CCN(C)CC(O)C(=O)NCCCCCCCCCCCC (stereo not drawn) [Compound L0278]
[1]; [3]
  PDI: 0.23 ± 0.01
  Particle size: 91.75 ± 0.80 nm
mice; [4]
  IVIS: 3.77 × 10^5
mice; [5]
  IVIS: 2.49 × 10^5

## CCCCCCCC/C=C\CCCCCCCCNC(=O)C(O)CN(CCN(C)CCN(CC(O)C(=O)NCCCCCCCC/C=C\CCCCCCCC)CC(O)C(=O)NCCCCCCCC/C=C\CCCCCCCC)CC(O)C(=O)NCCCCCCCC/C=C\CCCCCCCC (stereo not drawn) [Compound L0299]
[1]; [7]
  PDI: 0.16
  Particle size (nm): 91.76 nm
mice; [8]
  IVIS: 1.92E+06
mice; [20]
  IVIS: 1.55E+07
mice; [21]
  % of organ targeting: 7.28%
mice; [22]
  IVIS: 7.84E+05
mice; [23]
  % of organ targeting: 41.60%
mice; [24]
  IVIS: 4.48E+06
mice; [25]
  % of organ targeting: 51.12%
mice; [26]
  IVIS: 5.50E+06

## CCCCCCCCCCCCNC(=O)C(O)CN(CCCCCN(CC(O)C(=O)NCCCCCCCCCCCC)CC(O)C(=O)NCCCCCCCCCCCC)CC(O)C(=O)NCCCCCCCCCCCC (stereo not drawn) [Compound L0307]
[1]; [9]
  PDI: 0.25
  Particle size (nm): 178.57 nm
mice; [10]
  IVIS: 1.43E+05
mice; [27]
  IVIS: 4.29E+05

— US12233161B1, “Lipids and lipid nanoparticle formulations” (LONGUIDE BIOPHARMA CORPORATION, priority 2024, dated 2025)
